Data on two compounds can be found in patent publication US12171821B2, “Toxoplasma gondii vaccine” (priority 2018, dated 2024).

The test system of assay [1] is T. gondii. Kind of assay: Oocyst counts in mouse feces by microscopy. The assay is classed as in vivo, Toxoplasma gondii. The note with it: mice, inhibitor every 12 hours for the 7 days of infection. How it is done:
(§1) Delta-6-desaturase inhibition. SC 26196 (Cayman) was solubilized in DMSO and used at 20 μM in mouse organoid monolayers. For in vivo treatment, the inhibitor was solubilized in 0.5% m/v methylcellulose and the mice were given 50 mg/kg every 12 hours by oral gavage (He et al., 2012). 4-week old C57BL/6J female mice deleted in Z-DNA-binding protein (Pittman et al., 2016) were divided into four different groups: uninfected control, T. gondii-infected without fatty acid supplementation, T. gondii infected with linoleic acid supplementation, and T. gondii-infected with linoleic acid and SC 26196 inhibitor. Each mouse supplemented with linoleic acid received 10 μL of 99% linoleic acid oil (MilliporaSigma Cat #843483) suspended in 0.5% Methylcellulose per day by oral gavage. Mice were infected with 1000 brain cysts purified as described above by oral gavage and euthanized 7 days post infection. Sample size was at least 2 mice per group and the experiment was repeated 5 times. Alternatively, each mouse was infected with one mouse brain at least 2 months postinfection with at least 1000 cysts. Mice were treated with SC 26196 until day 5 postinfection. Feces were collected from days 5-14 and oocysts enumerated by microscopy.

Assay [2] has as its system T. gondii ME49 bradyzoites. Kind of assay: Real-time PCR on ileum cDNA of infected Z-DNA binding protein knock out mice. The format is in vivo, Toxoplasma gondii. Particulars: mice, linoleic acid and SC26196 50 mg/kg every 12 hours by oral gavage, seven days after infection. How it is done: as §1
(§2) Real-time PCR on ileum cDNA. Z-DNA binding protein deletion mice ice with and without delta-6-desaturase inhibitor treatment were euthanized 7 days post infection. The ileum of each mouse was removed and homogenized in 1 mL of TRIzol. Total RNA was isolated according to manufacturer's protocol (Invitrogen) and treated with amplification grade Dnase I. cDNA was generated using the Invitrogen SuperScript III First-Strand Synthesis kit with random hexamer primers. GRA11B and SAG1 were used as markers of sexual and asexual stages, respectively. The T. gondii housekeeping gene TUB1A was used to normalize target gene expression. Real-time quantitative PCR was performed using Bio-Rad iTaq Universal SYBR Green Supermix on 311 an Applied Biosystems StepOnePlus Real-Time PCR system. The efficiency of each primer set was calculated from the slope of a 1:10 dilution standard curve of tachyzoite gDNA, where E=10^(−1/slope). The Pfaffl method (Pfaffl, 2001), which accounts for differences in efficiencies, was then used to calculate the relative gene expression of GRA11B and SAG1 per sample, in triplicate. Only wells with one melt curve temperature were used, indicating a single product. Primer sequences were as follows:
Statistical methods. All real-time PCR fecal samples were run in triplicate technical replicates. The difference between the mean target gene copy numbers was analyzed by two-tailed unpaired t tests. The real-time PCR intestinal samples were run in triplicate from two biological replicates per group. The difference between the mean relative expression of each target gene was analyzed by two-tailed unpaired t tests.
A general note: In qPCR the cycle at which signal appears reflects the starting amount.

Assay [3] has as its system murine organoids. Kind of assay: Monolayer formation of murine organoids with delta 6-desaturase inhibitor. The assay is classed as cell-based, mouse. Particulars: about 2 μM to 200 μM, medium with about 200 μM linoleic acid.
For assay [4] the following is noted: whole animal experiments (He et al., 2012); cited from earlier work.
Assay [5] deals with T. gondii. Description: Real-time PCR (SAG1) on gDNA of mouse fecal samples. The format is in vivo, Toxoplasma gondii. The note with it: mice fed linoleic acid, with or without SC26196. The procedure:
as §1
Real-time PCR on fecal samples. […] A standard curve was generated using a dilution series of 101-105 parasites per well amplified using the SAG1 primer set described above, based on a gDNA sample with known parasite quantity. […]
[formula] […] The calculated copy numbers of each sample were normalized based on the ng of nucleic acid used as PCR template. […]
Statistical methods. […] The difference between the mean target gene copy numbers was analyzed by two-tailed unpaired t tests. […] The difference between the mean relative expression of each target gene was analyzed by two-tailed unpaired t tests.

Assay [6] deals with T. gondii ME49 bradyzoites. Description: Gametes and intracellular oocyst walls (AO2, 3G4, PCR) in infected cat intestinal monolayers. The note with it: cultured cat cells, 200 μM fatty acid, 7 days of infection. The format is cell-based, Toxoplasma gondii. How it is done: FIGS. 7A-H. Identification of gametes and intracellular oocysts in cat tissue culture. Cat intestinal organoids were disassociated by trypsin then grown as monolayers on glass slides. […] After 7 days, monolayers were incubated with mouse anti-AO2 (panels A-C) or mouse monoclonal IgM 3G4 (panels E-G), The amiloride-sensitive amine oxidase, copper-containing protein 2 (AO2) is an enzyme exclusively expressed in macrogametes and early oocysts and has a possible role in oocyst wall biogenesis. […] 3G4 is a mouse monoclonal antibody produced by immunizing mice with purified oocyst walls, thus it is a marker of oocyst wall biogenesis. Only monolayers supplemented with linoleic acid (G) had positive 3G4 vacuoles. All panels are 20 μm square with a 5 μm white size bar in the lower right corner. D) Markers for macrogamete and microgamete expression were also evaluated by PCR. Cat intestinal monolayers were grown in 24-well plates until confluency and then infected with T. gondii bradyzoites in duplicate using the same conditions as above. 7 days post-infection, RNA was extracted with TRIzol and cDNA was synthesized using an oligo (dT) primer to only amplify mRNA. AO2 was again used as a marker for macrogametes and the expected PCR product is 218 bp. To assess microgamete presence, we selected the gene TgME49_306338, which is overexpressed in the gametes stage, corresponded to day 7 post-infection in cats and has 44% identity to a protein expressed in the flagella of the motile green algae Chlamydomonas reinhardtii. The expected PCR product for TgME49_306338 is 160 bp. TUB1A was used as an input control and results in a 172 bp product. NO RT corresponds to a cDNA synthesis reaction without the addition of reverse transcriptase (RI) as a control for genomic DNA contamination. Equivalent amounts of cDNA per sample were used as a template for each PCR reaction, and the products were separated on an acrylamide gel. […] H) The number of positive oocyst walls stained with 3G4 were quantified. […] The number of positive oocyst walls were counted in each slide and divided by the area of slide in cm^2.
Immunofluorescence. Intestinal organoid monolayers or mouse fecal samples were fixed in 3.7% formaldehyde in PBS for 20 minutes, permeabilized with 0.2% triton X-100 (Sigma) in PBS at room temperature for one hour and then blocked with 3% BSA in PBS at room temperature for one hour. Primary antibody was incubated at 4° C. overnight in 0.2% v/v Triton x-100 and 3% BSA in PBS (1:100 mouse anti-GRA11B, 1:100 rabbit anti-BRP1, 1:100 mouse anti-AO2, 1:50 monoclonal mouse anti-ZO1 (Santa Cruz) or 1:25 mouse 288 IgM anti-oocyst wall 3G4. Sporulated oocysts from mouse feces were dried onto slides, fixed and permeabilized with ice cold acetone for 30 minutes and incubated with 1:20 mouse 4B6 to the visualize the sporocyst. Slides were incubated one hour with the specific secondary antibody (1:500 goat anti-rabbit Alexa Fluor 488 and 1:500 goat anti-mouse Alexa Fluor 594) at room temperature for one hour and then washed 3 times with PBS. Cells nuclei were stained with 10 μM DAPI (Sigma). Slides were mounted in Vectashield antifade mounting medium (VectorLabs). Samples were imaged on Zeiss Axioplan III equipped with a triple-pass (DAPI/fluorescein isothiocyanate [FITC]/Texas Red) emission cube, differential interference contrast optics, and a monochromatic Axiocam camera operated by Zen software (Zeiss) and processed using ImageJ (Fiji packet).
PCR of cat intestinal monolayers. […]

The subject of assay [7] is T. gondii ME49 bradyzoites. Kind of assay: qPCR of SAG1, GRA11B, TUB1A on cDNA of infected cat intestinal monolayers. The note with it: cat intestinal monolayers cDNA. The assay is classed as cell-based, Toxoplasma gondii. The procedure:
(§3) FIGS. 6A-B. Quantification of merozoites in cat tissue culture. A) Cat intestinal organoids were disassociated by trypsin then grown as monolayers on glass slides. Slides were divided into three different groups: not supplemented with fatty acid, supplemented with 200 μM oleic acid or supplemented 200 μM linoleic acid. Monolayers were infected with T. gondii MEM bradyzoites purified from brains of chronic infected mice at a 1:10 MOI. Five days after infection, staining for GRA11B and BRP1 along with DAPI, allowed the percentage of vacuoles positive for GRA11B and BRP1out of the total vacuoles was determined. Total number of parasitophorous vacuoles were counted by positive DAPI staining and confirmed by morphology with DIC. At least 50 parasitophorous vacuoles were counted per replicate. Three biological replicates were counted and on average 35% of the total vacuoles were positive far both GRA11B and BRP1 in the linoleic acid supplemented monolayers. *p-value=0.0126 with N=3 by two-tailed unpaired t test. Straining for both BRP1 and GRA11B was used to ensure that merozoite stages were counted. […] BRP1 is a rhoptry protein that was initially found in bradyzoites; however, it is also expressed in merozoite. B) Cat intestinal monolayers were grown as described in panel A, except monolayers were quenched by TRIzol 5 days post-infection, RNA was extracted, and cDNA was synthesized using an oligo (dT) primer to amplify mRNA, Expression of SAG1 and GRA11B were quantified by qPCR and the fold change calculated in comparison with uninfected cells. TUB1A was used to normalize gene expression across samples.
as §2, with “follows: […]” for “follows:”

The test system of assay [8] is T. gondii ME49 bradyzoites. Description: Merozoite markers GRA11B/BRP1, immunofluorescence, infected cat intestinal monolayers. The assay is classed as cell-based, Toxoplasma gondii. The note with it: 200 μM fatty acid, 5 days of infection. How it is done:
as §3, with “B) Cat intestinal monolayers were grown as described in panel A, except monolayers were quenched by TRIzol 5 days post-infection, RNA was extracted, and cDNA was synthesized using an oligo (dT) primer to amplify mRNA, Expression of SAG1 and GRA11B were quantified by qPCR and the fold change calculated in comparison with uninfected cells. TUB1A was used to normalize gene expression across samples.” left out

Setting [9] is: biological replicates 1 and 2, wells 1-3.

SMILES strings stand for the structures. “And” between values parts separate entries of the source, which are not always exact repeats. Equal entries are not always repeated. “Also recorded” adds a separate entry of the source.

Turning to `N#CC(CCCN1CCN(/N=C/c2cccnc2)CC1)(c1ccccc1)c1ccccc1` [SC26196], in assay [1], the oocysts produced is 1000-10,000 oocysts/gram dry feces. In assay [2], the “expression of merozoite marker GRA11B, qPCR of ileum cDNA” value is reported as “significantly up regulated only in the presence of SC26196”. In assay [3], the monolayer formation entry is recorded as “did not inhibit monolayer formation”. In addition, the anti-inflammatory effect entry in assay [4] is “effective as an anti-inflammatory agent”. Besides, in assay [5], the “T. gondii genomic DNA in mouse fecal samples (qPCR, SAG1 primers)” value is “detectable only in mice treated with SC26196; also recorded: detected only in mice treated with SC26196”.

In the case of `CCCCCCCC/C=C\CCCCCCCC(=O)O` [oleic acid], in assay [6], the “number of positive oocyst walls stained with 3G4” value is “none”. Besides, in assay [7] (biological replicates 1 and 2), the “GRA11B Ct mean” value is 32.53 and 31.82; the “SAG1 Ct mean” value is 20.83 and 19.56. In assay [7] (setting [9]), the “GRA11B raw Ct values” was 32.44 and 31.77 (2×) and 32.73 and 31.91 and 32.43; the “SAG1 raw Ct values” is 20.87 and 19.66 and 20.88 and 19.54 and 20.75 and 19.46. Further, the “parasites undergoing sexual development / merozoite stage markers GRA11B and BRP1 (staining)” value in assay [8] was “not”.
